Data reported in ChEMBL document CHEMBL4130350, “Discovery, mechanism and metabolism studies of 2,3-difluorophenyl-linker-containing PARP1 inhibitors with enhanced in vivo efficacy for cancer therapy” (Eur J Med Chem, 2017).
In brackets after ≈: the same amount, converted by molar mass. One block for each compound: values may come before it. Activity calls are given as the source filed them. The calls are words filed in the database; no cut-off is given here.

Assays:
[1] = AUC in Sprague-Dawley rat at 10 mg/kg, iv by LC-MS/MS analysis; type: ADME, organism-based; settings: in vivo
CAPAN-1 [2] = test: Cell cycle arrest in human Capan1 cells assessed as accumulation at S phase at 0.1 uM after 72 hrs by propidium iodide-staining based flow cytometry (reference value: 21.42%); type: functional
[3] = Clearance in Sprague-Dawley rat at 10 mg/kg, iv by LC-MS/MS analysis; type: ADME, organism-based; settings: in vivo
V79 = test: Cytotoxicity against BRCA2 expressing Chinese hamster V79 cells after 3 days by CCK8 or SRB assay; type: cell-based; settings: Cricetulus griseus, V79, 72 h
MDA-MB-436 [4] = test: Induction of apoptosis in human MDA-MB-436 cells assessed as late apoptotic cells at 0.1 uM after 96 hrs in presence of pancaspase inhibitor Z-VAD-FMK by Annexin V-FITC/propidium iodide double-staining based flow cytometery (reference value: 5.11%); type: functional
CAPAN-1 [5] = test: Antiproliferative activity against human Capan1 cells after 7 days by CCK8 or SRB assay; type: functional, cell-based; settings: CAPAN-1, 168 h
[6] = Cytotoxicity against BRCA2 deficient Chinese hamster VC8 cells after 3 days by CCK8 or SRB assay; type: functional, cell-based; settings: Cricetulus griseus, V-C8, 72 h
MDA-MB-436 [7] = test: Induction of apoptosis in human MDA-MB-436 cells assessed as caspase-3/7 activation at 0.1 to 1 uM after 72 hrs by Caspase-Glo 3/7 assay; type: functional, cell-based
MDA-MB-436 [8] = test: Antitumor activity against human MDA-MB-436 cells harboring BRCA1 mutant xenografted in nude BALB/cA mouse assessed as tumor growth inhibition at 100 mg/kg, po administered once daily for 21 consecutive days measured twice per week; type: functional; settings: MDA-MB-436, po, read-out: TGI
MDA-MB-436 [9] = test: Induction of apoptosis in human MDA-MB-436 cells assessed as early apoptotic cells at 1 uM after 96 hrs by Annexin V-FITC/propidium iodide double-staining based flow cytometery (reference value: 1.90%); type: functional
CAPAN-1 [10] = test: Cell cycle arrest in human Capan1 cells assessed as accumulation at G0/G1 phase at 1 uM after 72 hrs by propidium iodide-staining based flow cytometry (reference value: 63.33%); type: functional
MDA-MB-436 [11] = test: Induction of apoptosis in human MDA-MB-436 cells assessed as late apoptotic cells at 1 uM after 96 hrs by Annexin V-FITC/propidium iodide double-staining based flow cytometery (reference value: 5.61%); type: functional
MDA-MB-436 [12] = test: Induction of apoptosis in human MDA-MB-436 cells assessed as late apoptotic cells at 0.1 uM after 96 hrs by Annexin V-FITC/propidium iodide double-staining based flow cytometery (reference value: 5.61%); type: functional
CAPAN-1 [13] = test: Cell cycle arrest in human Capan1 cells assessed as accumulation at G0/G1 phase at 0.1 uM after 72 hrs by propidium iodide-staining based flow cytometry (reference value: 63.33%); type: functional
MDA-MB-436 [14] = test: Induction of apoptosis in human MDA-MB-436 cells assessed as early apoptotic cells at 0.1 uM after 96 hrs in presence of pancaspase inhibitor Z-VAD-FMK by Annexin V-FITC/propidium iodide double-staining based flow cytometery (reference value: 2.32%); type: functional
[15] = Half life in Sprague-Dawley rat at 10 mg/kg, iv by LC-MS/MS analysis; type: ADME, organism-based; settings: in vivo
[16] = AUC in Sprague-Dawley rat at 20 mg/kg, po by LC-MS/MS analysis; type: ADME, organism-based; settings: in vivo
[17] = Cmax in Sprague-Dawley rat at 20 mg/kg, po by LC-MS/MS analysis; type: ADME, organism-based; parameters: dose 20 mg/kg, route oral; settings: in vivo
CAPAN-1 [18] = test: Cell cycle arrest in human Capan1 cells assessed as accumulation at G2/M phase at 0.1 uM after 72 hrs by propidium iodide-staining based flow cytometry (reference value: 15.26%); type: functional
MDA-MB-436 [19] = test: Antiproliferative activity against human MDA-MB-436 cells after 7 days by CCK8 or SRB assay; type: functional, cell-based; settings: MDA-MB-436, 168 h
MDA-MB-436 [20] = test: Induction of apoptosis in human MDA-MB-436 cells assessed as early apoptotic cells at 0.1 uM after 96 hrs by Annexin V-FITC/propidium iodide double-staining based flow cytometery (reference value: 1.90%); type: functional
CAPAN-1 [21] = test: Cell cycle arrest in human Capan1 cells assessed as accumulation at S phase at 1 uM after 72 hrs by propidium iodide-staining based flow cytometry (reference value: 21.42%); type: functional
[22] = Volume of distribution in Sprague-Dawley rat at 10 mg/kg, iv by LC-MS/MS analysis; type: ADME, organism-based; settings: in vivo
[23] = Half life in Sprague-Dawley rat at 20 mg/kg, po by LC-MS/MS analysis; type: ADME, organism-based; settings: in vivo
MDA-MB-436 [24] = test: Induction of apoptosis in human MDA-MB-436 cells assessed as early apoptotic cells at 1 uM after 96 hrs in presence of pancaspase inhibitor Z-VAD-FMK by Annexin V-FITC/propidium iodide double-staining based flow cytometery (reference value: 2.32%); type: functional
[25] = Oral bioavailability in Sprague-Dawley rat at 20 mg/kg by LC-MS/MS analysis; type: ADME, organism-based; settings: in vivo
[26] = Solubility of the compound in water after 24 hrs by HPLC analysis; type: physicochemical
[27] = Cmax in Sprague-Dawley rat at 10 mg/kg, iv by LC-MS/MS analysis; type: ADME, organism-based; parameters: dose 10 mg/kg, route intravenous; settings: in vivo
MDA-MB-436 [28] = test: Induction of apoptosis in human MDA-MB-436 cells assessed as late apoptotic cells at 1 uM after 96 hrs in presence of pancaspase inhibitor Z-VAD-FMK by Annexin V-FITC/propidium iodide double-staining based flow cytometery (reference value: 5.11%); type: functional
CAPAN-1 [29] = test: Cell cycle arrest in human Capan1 cells assessed as accumulation at G2/M phase at 1 uM after 72 hrs by propidium iodide-staining based flow cytometry (reference value: 15.26%); type: functional
[30] = AUC in Sprague-Dawley rat at 1 mg/kg, iv by LC-MS/MS analysis; type: ADME, organism-based; settings: in vivo
[31] = Apparent permeability across basolateral to apical side in human Caco2 cells after 2 hrs by LC-MS/MS analysis; type: ADME, cell-based; settings: Caco-2
[32] = AUC in Sprague-Dawley rat at 2 mg/kg, po by LC-MS/MS analysis; type: ADME, organism-based; settings: in vivo
[33] = Volume of distribution in Sprague-Dawley rat at 1 mg/kg, iv by LC-MS/MS analysis; type: ADME, organism-based; settings: in vivo
CAPAN-1 [34] = test: Antitumor activity against human Capan1 cells harboring BRCA2 mutant xenografted in nude BALB/cA mouse assessed as tumor growth inhibition at 0.5 mg/kg, po administered once daily for 21 consecutive days measured twice per week; type: functional; settings: CAPAN-1, po, read-out: TGI
[35] = Cmax in Sprague-Dawley rat at 1 mg/kg, iv by LC-MS/MS analysis; type: ADME, organism-based; parameters: dose 1 mg/kg, route intravenous; settings: in vivo
[36] = Apparent permeability across apical to basolateral side in human Caco2 cells after 2 hrs by LC-MS/MS analysis; type: ADME, cell-based; settings: Caco-2
[37] = Elimination half-life in mouse liver microsomes at 2 uM up to 60 mins by LC-MS/MS analysis; type: ADME, microsome; settings: read-out: beta t1/2
Rattus norvegicus = test: Half life in Sprague-Dawley rat at 2 mg/kg, po by LC-MS/MS analysis; type: ADME, organism-based; settings: in vivo
[38] = Half life in Sprague-Dawley rat at 1 mg/kg, iv by LC-MS/MS analysis; type: ADME, organism-based; settings: in vivo
Mus musculus [39] = test: Toxicity in nude BALB/cA mouse xenografted with human Capan1 cells harboring BRCA2 mutant assessed as mortality at 0.5 mg/kg, po administered once daily for 21 consecutive days measured twice per week; type: organism-based; settings: in vivo
[40] = Cmax in Sprague-Dawley rat at 2 mg/kg, po by LC-MS/MS analysis; type: ADME, organism-based; parameters: dose 2 mg/kg, route oral; settings: in vivo
[41] = Oral bioavailability in Sprague-Dawley rat at 2 mg/kg by LC-MS/MS analysis; type: ADME, organism-based; settings: in vivo
[42] = Apparent permeability across basolateral to apical side in human Caco2 cells assessed as drug recovery at 18593.3 pmol after 2 hrs by LC-MS/MS analysis; type: ADME, cell-based; settings: Caco-2, read-out: Drug recovery
[43] = Clearance in Sprague-Dawley rat at 1 mg/kg, iv by LC-MS/MS analysis; type: ADME, organism-based; settings: in vivo
[44] = Stability in mouse plasma at 1 uM up to 60 mins by LC-MS/MS analysis; type: ADME, cell-free; settings: read-out: Stability
[45] = Protein binding in mouse plasma at 0.5 to 50 uM after 4 hrs by LC-MS/MS analysis; type: ADME, cell-free; settings: read-out: PPB (converted)
Mus musculus [46] = test: Toxicity in nude BALB/cA mouse xenografted with human Capan1 cells harboring BRCA2 mutant assessed as weight loss at 0.5 mg/kg, po administered once daily for 21 consecutive days measured twice per week; type: organism-based; settings: in vivo
[47] = Apparent permeability across apical to basolateral side in human Caco2 cells assessed as drug recovery at 5631.3 pmol after 2 hrs by LC-MS/MS analysis; type: ADME, cell-based; settings: Caco-2, read-out: Drug recovery

- AUC [1]: 5500 ng·h/mL
- clearance [3]: 30 mL/min/kg
- half-life [15]: 1.1 h
- AUC [16]: 4990 ng·h/mL
- Cmax [17]: 2590 ng/mL
- IC50 (MDA-MB-436 [19]): 39.3 nM
- Vd [22]: 3 L/kg
- half-life [23]: 1 h
- bioavailability [25]: 45.4%
- solubility at 24 h [26]: 104 µg/mL (≈ 239 µM)
- Cmax [27]: 12300 ng/mL
SMILES: O=C(c1cc(Cc2n[nH]c(=O)c3ccccc23)ccc1F)N1CCN(C(=O)C2CC2)CC1 [OLAPARIB]
- Activity (CAPAN-1 [2]): 27.2%
- IC50 (V79): 10000 to 54200 nM
- Activity (MDA-MB-436 [4]): 6.52%
- IC50 (CAPAN-1 [5]): 399 nM
- IC50 [6]: 566 nM
- Activity (MDA-MB-436 [7]): Active
- inhibition in vivo at 100 mg/kg (MDA-MB-436 [8]): 65%
- Activity (MDA-MB-436 [9]): 4.15%
- Activity (CAPAN-1 [10]): 22.33%
- Activity (MDA-MB-436 [11]): 17.75%
- Activity (MDA-MB-436 [12]): 9.78%
- Activity (CAPAN-1 [13]): 51.83%
- Activity (MDA-MB-436 [14]): 3.3%
- Activity (CAPAN-1 [18]): 20.91%
- Activity (MDA-MB-436 [20]): 2.5%
- Activity (CAPAN-1 [21]): 26.14%
- Activity (MDA-MB-436 [24]): 4.79%
- Activity (MDA-MB-436 [28]): 9.97%
- Activity (CAPAN-1 [29]): 51.54%

SMILES: Cn1ncnc1[C@H]1c2n[nH]c(=O)c3cc(F)cc(c23)N[C@@H]1c1ccc(F)cc1 [TALAZOPARIB]
- AUC [30]: 6540 ng·h/mL
- Papp B→A at 2 h [31]: 51.8 ×10⁻⁶ cm/s
- IC50 (V79): 5010 nM
- AUC [32]: 13200 ng·h/mL
- Vd [33]: 1.1 L/kg
- IC50 (CAPAN-1 [5]): 1.8 nM
- IC50 [6]: 4.2 nM
- inhibition in vivo at 0.5 mg/kg (CAPAN-1 [34]): 80%
- Cmax [35]: 2060 ng/mL
- Papp A→B at 2 h [36]: 0.9 ×10⁻⁶ cm/s
- half-life at 2 µM [37]: > 1 h
- t1/2 (Rattus norvegicus): 3.4 h
- half-life [38]: 4.6 h
- Activity (Mus musculus [39]): Toxic
- Cmax [40]: 3100 ng/mL
- IC50 (MDA-MB-436 [19]): 0.7 nM
- bioavailability [41]: 104%
- recovery at 2 h [42]: 108%
- clearance [43]: 3.33 mL/min/kg
- remaining at 1 h, 1 µM [44]: 106%
- fraction unbound at 4 h, up to 50 µM [45]: 0.057
- Activity (Mus musculus [46]): Toxic
- recovery at 2 h [47]: 98.4%
